In the NIST ThermoML archive (doi:10.1016/j.tca.2018.11.018):

Assay: xn = mol fraction of the nth substance listed
Conditions: 100 kPa, Liquid; for viscosity: Falling or rolling sphere viscometry; for mass density: Vibrating tube method

CCCC[N+]1(C)CCCCC1.[Br-] [N-butyl-N-methylpiperidinium bromide] + O
Conditions | mass density [kg/m3] | viscosity [mPa·s]
298.15 K, x1 = 0.03 | 1057.7 | 1.991
298.15 K, x1 = 0.06 | 1097.6 | 3.692
298.15 K, x1 = 0.089 | 1126.3 | 6.598
298.15 K, x1 = 0.124 | 1150.5 | 12.67
298.15 K, x1 = 0.159 | 1167.6 | 21.36
298.15 K, x1 = 0.195 | 1180.6 | 35.21
298.15 K, x1 = 0.244 | 1193.3 | 69.27
303.15 K, x1 = 0.03 | 1054.4 | 1.735
303.15 K, x1 = 0.06 | 1094.6 | 3.121
303.15 K, x1 = 0.089 | 1122.9 | 5.435
303.15 K, x1 = 0.124 | 1146.9 | 10.39
303.15 K, x1 = 0.159 | 1164 | 16.98
303.15 K, x1 = 0.195 | 1176.9 | 27.19
303.15 K, x1 = 0.244 | 1189.7 | 51.06
303.15 K, x1 = 0.271 | 1195.4 | 72.65
308.15 K, x1 = 0.03 | 1051.9 | 1.529
308.15 K, x1 = 0.06 | 1091.5 | 2.676
308.15 K, x1 = 0.089 | 1119.4 | 4.553
308.15 K, x1 = 0.124 | 1143.2 | 8.531
308.15 K, x1 = 0.159 | 1160.3 | 13.62
308.15 K, x1 = 0.195 | 1173.3 | 21.32
308.15 K, x1 = 0.244 | 1186.2 | 38.65
308.15 K, x1 = 0.271 | 1191.8 | 53.78
313.15 K, x1 = 0.03 | 1049.3 | 1.359
313.15 K, x1 = 0.06 | 1088.3 | 2.321
313.15 K, x1 = 0.089 | 1116 | 3.88
313.15 K, x1 = 0.124 | 1139.6 | 7.053
313.15 K, x1 = 0.159 | 1156.7 | 11.02
313.15 K, x1 = 0.195 | 1169.7 | 16.99
313.15 K, x1 = 0.244 | 1182.6 | 29.62
313.15 K, x1 = 0.271 | 1188.3 | 40.63
318.15 K, x1 = 0.03 | 1045.6 | 1.215
318.15 K, x1 = 0.06 | 1085.1 | 2.033
318.15 K, x1 = 0.089 | 1112.4 | 3.326
318.15 K, x1 = 0.124 | 1135.9 | 5.797
318.15 K, x1 = 0.159 | 1153 | 9.05
318.15 K, x1 = 0.195 | 1166 | 13.74
318.15 K, x1 = 0.244 | 1179 | 23.16
318.15 K, x1 = 0.271 | 1184.7 | 31.55
323.15 K, x1 = 0.03 | 1042.7 | 1.097
323.15 K, x1 = 0.06 | 1081.8 | 1.798
323.15 K, x1 = 0.089 | 1108.8 | 2.89
323.15 K, x1 = 0.124 | 1132.2 | 4.929
323.15 K, x1 = 0.159 | 1149.3 | 7.56
323.15 K, x1 = 0.195 | 1162.4 | 11.33
323.15 K, x1 = 0.244 | 1175.4 | 18.71
323.15 K, x1 = 0.271 | 1181.2 | 24.85
328.15 K, x1 = 0.03 | 1040 | 0.997
328.15 K, x1 = 0.06 | 1078.4 | 1.603
328.15 K, x1 = 0.089 | 1105.2 | 2.54
328.15 K, x1 = 0.124 | 1128.5 | 4.221
328.15 K, x1 = 0.159 | 1145.5 | 6.369
328.15 K, x1 = 0.195 | 1158.7 | 9.485
328.15 K, x1 = 0.244 | 1171.8 | 15.31
328.15 K, x1 = 0.271 | 1177.6 | 20.06
333.15 K, x1 = 0.03 | 1035.9 | 0.906
333.15 K, x1 = 0.06 | 1075 | 1.441
333.15 K, x1 = 0.089 | 1101.6 | 2.248
333.15 K, x1 = 0.124 | 1124.8 | 3.656
333.15 K, x1 = 0.159 | 1141.8 | 5.446
333.15 K, x1 = 0.195 | 1155 | 8.051
333.15 K, x1 = 0.244 | 1168.2 | 12.77
333.15 K, x1 = 0.271 | 1174 | 16.49
338.15 K, x1 = 0.03 | 1031.9 | 0.828
338.15 K, x1 = 0.06 | 1071.4 | 1.302
338.15 K, x1 = 0.089 | 1097.9 | 2.006
338.15 K, x1 = 0.124 | 1121 | 3.199
338.15 K, x1 = 0.159 | 1138 | 4.666
338.15 K, x1 = 0.195 | 1151.3 | 6.86
338.15 K, x1 = 0.244 | 1164.5 | 10.74
338.15 K, x1 = 0.271 | 1170.4 | 13.75
343.15 K, x1 = 0.03 | 1027.2 | 0.761
343.15 K, x1 = 0.06 | 1067.6 | 1.185
343.15 K, x1 = 0.089 | 1094.1 | 1.806
343.15 K, x1 = 0.124 | 1117.2 | 2.715
343.15 K, x1 = 0.159 | 1134.3 | 4.069
343.15 K, x1 = 0.195 | 1147.6 | 5.932
343.15 K, x1 = 0.244 | 1160.9 | 9.231
343.15 K, x1 = 0.271 | 1166.8 | 11.68
348.15 K, x1 = 0.03 | 1023.3 | 0.7
348.15 K, x1 = 0.06 | 1064.1 | 1.083
348.15 K, x1 = 0.089 | 1090.4 | 1.629
348.15 K, x1 = 0.124 | 1113.4 | 2.428
348.15 K, x1 = 0.159 | 1130.5 | 3.568
348.15 K, x1 = 0.195 | 1143.8 | 5.143
348.15 K, x1 = 0.244 | 1157.2 | 7.953
348.15 K, x1 = 0.271 | 1163.2 | 9.976
